Measured values as given in ChEMBL document CHEMBL4715771 (Bioorg Med Chem, 2016).
Calls of active or inactive are those of the source. The rule behind the calls is not given here.

Experiments:
[1] = system: MDA-MB-231; assay: Antiproliferative activity against triple-negative human MDA-MB-231 cells overexpressing c-Met assessed as inhibition of cell proliferation measured after 72 hrs by MTT assay; assay type: functional, cell-based; conditions: MDA-MB-231, 72 h
[2] = system: MDA-MB-468; assay: Antiproliferative activity against triple-negative human MDA-MB-468 cells overexpressing c-Met assessed as inhibition of cell proliferation measured after 72 hrs by MTT assay; assay type: functional, cell-based; conditions: MDA-MB-468, 72 h
[3] = molecular target: T1, Hepatocyte growth factor receptor (Homo sapiens, UniProt P08581); assay: Inhibition of c-MET kinase domain (unknown origin) using Tyr6 peptide as substrate measured after 1 hr in presence of ATP by Z'-lyte kinase assay
[4] = system: MCF7; assay: Antiproliferative activity against estrogen-dependent human MCF7 cells assessed as inhibition of cell proliferation measured after 72 hrs by MTT assay; assay type: functional, cell-based; conditions: MCF7, 72 h
[5] = system: T47D; assay: Antiproliferative activity against estrogen-dependent human T47D cells assessed as inhibition of cell proliferation measured after 72 hrs by MTT assay; assay type: functional, cell-based
[6] = system: SK-BR-3; assay: Antiproliferative activity against ER-deficient human SK-BR-3 cells overexpressing HER2 assessed as inhibition of cell proliferation measured after 72 hrs by MTT assay; assay type: functional, cell-based; conditions: SK-BR-3, 72 h
[7] = system: BT-474; assay: Antiproliferative activity against ER-positive human BT-474 cells overexpressing HER2 assessed as inhibition of cell proliferation measured after 72 hrs by MTT assay; assay type: functional, cell-based; conditions: BT-474, 72 h
[8] = molecular target: T1, Hepatocyte growth factor receptor; assay: Inhibition of c-MET in human MDA-MB-231 cells assessed as downregulation of activated phosphorylated Akt level measured after 72 hrs in presence of HGF by immunoblot analysis; assay type: cell-based; conditions: dose 1-3 µM
[9] = molecular target: T1, Hepatocyte growth factor receptor; assay: Inhibition of c-MET in human MDA-MB-231 cells assessed as downregulation of activated phosphorylated mTOR level measured after 72 hrs in presence of HGF by immunoblot analysis; assay type: cell-based; conditions: dose 1-3 µM
[10] = molecular target: T1, Hepatocyte growth factor receptor; assay: Inhibition of c-MET in human MDA-MB-231 cells assessed as downregulation of activated phosphorylated FAK level measured after 72 hrs in presence of HGF by immunoblot analysis; assay type: cell-based; conditions: dose 1-3 µM
[11] = molecular target: T1, Hepatocyte growth factor receptor; assay: Inhibition of c-MET in human MDA-MB-231 cells assessed as downregulation of activated phosphorylated paxillin level measured after 72 hrs in presence of HGF by immunoblot analysis; assay type: cell-based; conditions: dose 1-3 µM
[12] = molecular target: T1, Hepatocyte growth factor receptor; assay: Inhibition of c-MET in human MDA-MB-231 cells assessed as downregulation of activated phosphorylated MAPK level measured after 72 hrs in presence of HGF by immunoblot analysis; assay type: cell-based; conditions: dose 1-3 µM
[13] = system: MDA-MB-231; assay: Cytotoxicity against human MDA-MB-231 cells assessed as induction of necrotic cell death by measuring LDH release at 0.5 to 8 uM measured after 24 hrs by LDH release assay; assay type: functional, cell-based; conditions: dose 0.5-8 µM
[14] = system: MCF-10A; assay: Cytotoxicity against human MCF-10A cells assessed as cell death at 1 to 15 uM measured after 24 hrs by MTT assay; assay type: cell-based; conditions: dose 1-15 µM
[15] = Cytotoxicity against human MCF-10A cells assessed as reduction in cell viability at 15 uM measured after 24 hrs by MTT assay relative to control; assay type: cell-based; conditions: read-out: INH
[16] = molecular target: Tyrosine-protein kinase ABL1 (Homo sapiens) (UniProt P00519); assay: Inhibition of recombinant full length His-tagged human ABL1 expressed in baculovirus expression system at 10 uM by TR-FRET assay relative to control
[17] = molecular target: ALK tyrosine kinase receptor (Homo sapiens) (UniProt Q9UM73); assay: Inhibition of recombinant GST-tagged human ALK (1058 to 1620 residues) expressed in baculovirus expression system at 10 uM by TR-FRET assay relative to control
[18] = molecular target: Tyrosine-protein kinase receptor UFO (Homo sapiens) (UniProt P30530); assay: Inhibition of recombinant His-tagged human AXL (473 to end residues) expressed in insect cells at 10 uM by TR-FRET assay relative to control
[19] = molecular target: Epidermal growth factor receptor (Homo sapiens) (UniProt P00533); assay: Inhibition of recombinant GST-tagged human EGFR (668 to 1210 residues) expressed in baculovirus expression system at 10 uM by TR-FRET assay relative to control
[20] = molecular target: Receptor tyrosine-protein kinase erbB-2 (Homo sapiens) (UniProt P04626); assay: Inhibition of recombinant His-tagged human Erbb2 (676 to 1255 residues) expressed in baculovirus expression system at 10 uM by TR-FRET assay relative to control
[21] = molecular target: Fibroblast growth factor receptor 1 (Homo sapiens) (UniProt P11362); assay: Inhibition of recombinant His-tagged human FGFR1 (308 to 731 residues) expressed in baculovirus expression system at 10 uM by TR-FRET assay relative to control
[22] = molecular target: Insulin-like growth factor 1 receptor (Homo sapiens) (UniProt P08069); assay: Inhibition of recombinant C-terminal His-tagged human IGF1R (960 to 1397 residues) expressed in baculovirus expression system at 10 uM by TR-FRET assay relative to control
[23] = molecular target: T1, Hepatocyte growth factor receptor; assay: Inhibition of recombinant N-terminal His-tagged human MET (956 to 1390 residues) expressed in baculovirus expression system at 10 uM by TR-FRET assay relative to control
[24] = molecular target: Macrophage-stimulating protein receptor (Homo sapiens) (UniProt Q04912); assay: Inhibition of recombinant GST-tagged human RON (983 to 1440 residues) expressed in baculovirus expression system at 10 uM by TR-FRET assay relative to control
[25] = molecular target: Proto-oncogene tyrosine-protein kinase ROS (Homo sapiens) (UniProt P08922); assay: Inhibition of recombinant GST-tagged human ROS1 (1883 to 2347 residues) expressed in baculovirus expression system at 10 uM by TR-FRET assay relative to control
[26] = system: MDA-MB-231; assay: Antitumor activity against GFP-tagged human MDA-MB-231 cells xenografted in athymic nude-Foxn1nu/Foxn1+ mouse assessed as the tumor volume at 10 mg/kg, ip dosed 3 times per week for 3 weeks treatment started 10 days of post inoculation by digital caliper method (reference value: 2048 mm3); assay type: functional
[27] = system: MDA-MB-231; assay: Antitumor activity against GFP-tagged human MDA-MB-231 cells xenografted in athymic nude-Foxn1nu/Foxn1+ mouse assessed as the reduction in tumor growth at 10 mg/kg, ip dosed 3 times per week for 3 weeks treatment started 10 days of post inoculation digital caliper method relative to control; assay type: functional; conditions: MDA-MB-231, ip, 504 h, read-out: TGI
[28] = Toxicity in athymic nude-Foxn1nu/Foxn1+ mouse assessed as effect on body weight at 10 mg/kg, ip dosed 3 times per week for 3 weeks treatment started 10 days of post inoculation; assay type: organism-based; conditions: in vivo, 504 h
[29] = system: Mus musculus; assay: Downregulation of phosphorylated c-Met level in tumor of athymic nude-Foxn1nu/Foxn1+ mouse xenografted with GFP-tagged human MDA-MB-231 cells at 10 mg/kg, ip dosed 3 times per week for 3 weeks treatment started 10 days of post inoculation by western blot analysis; assay type: functional, organism-based
[30] = molecular target: T1, Hepatocyte growth factor receptor; assay: Inhibition of c-MET in human MDA-MB-231 cells assessed as downregulation of activated phosphorylated c-MET level at 1 to 3 uM measured after 72 hrs in presence of HGF by immunoblot analysis; assay type: cell-based; conditions: dose 1-3 µM
[31] = system: MDA-MB-231; assay: Antiinvasive activity against human MDA-MB-231 cells overexpressing c-Met assessed as inhibition of cell invasion at 2 uM measured after 24 hrs by Calcein AM dye based fluorescence assay; assay type: functional
[32] = system: MDA-MB-231; assay: cells; conditions: Homo sapiens, MDA-MB-231, 23 h
[33] = system: MDA-MB-231; assay: cells; conditions: Homo sapiens, MDA-MB-231, 24 h
[34] = molecular target: T1, Hepatocyte growth factor receptor; assay: Inhibition of c-MET in human MDA-MB-231 cells assessed as downregulation of activated phosphorylated c-MET level measured after 72 hrs in presence of HGF by immunoblot analysis; assay type: cell-based; conditions: dose 25-50 µM

T1 sequence (P08581 whole entry, the tested form may be a part): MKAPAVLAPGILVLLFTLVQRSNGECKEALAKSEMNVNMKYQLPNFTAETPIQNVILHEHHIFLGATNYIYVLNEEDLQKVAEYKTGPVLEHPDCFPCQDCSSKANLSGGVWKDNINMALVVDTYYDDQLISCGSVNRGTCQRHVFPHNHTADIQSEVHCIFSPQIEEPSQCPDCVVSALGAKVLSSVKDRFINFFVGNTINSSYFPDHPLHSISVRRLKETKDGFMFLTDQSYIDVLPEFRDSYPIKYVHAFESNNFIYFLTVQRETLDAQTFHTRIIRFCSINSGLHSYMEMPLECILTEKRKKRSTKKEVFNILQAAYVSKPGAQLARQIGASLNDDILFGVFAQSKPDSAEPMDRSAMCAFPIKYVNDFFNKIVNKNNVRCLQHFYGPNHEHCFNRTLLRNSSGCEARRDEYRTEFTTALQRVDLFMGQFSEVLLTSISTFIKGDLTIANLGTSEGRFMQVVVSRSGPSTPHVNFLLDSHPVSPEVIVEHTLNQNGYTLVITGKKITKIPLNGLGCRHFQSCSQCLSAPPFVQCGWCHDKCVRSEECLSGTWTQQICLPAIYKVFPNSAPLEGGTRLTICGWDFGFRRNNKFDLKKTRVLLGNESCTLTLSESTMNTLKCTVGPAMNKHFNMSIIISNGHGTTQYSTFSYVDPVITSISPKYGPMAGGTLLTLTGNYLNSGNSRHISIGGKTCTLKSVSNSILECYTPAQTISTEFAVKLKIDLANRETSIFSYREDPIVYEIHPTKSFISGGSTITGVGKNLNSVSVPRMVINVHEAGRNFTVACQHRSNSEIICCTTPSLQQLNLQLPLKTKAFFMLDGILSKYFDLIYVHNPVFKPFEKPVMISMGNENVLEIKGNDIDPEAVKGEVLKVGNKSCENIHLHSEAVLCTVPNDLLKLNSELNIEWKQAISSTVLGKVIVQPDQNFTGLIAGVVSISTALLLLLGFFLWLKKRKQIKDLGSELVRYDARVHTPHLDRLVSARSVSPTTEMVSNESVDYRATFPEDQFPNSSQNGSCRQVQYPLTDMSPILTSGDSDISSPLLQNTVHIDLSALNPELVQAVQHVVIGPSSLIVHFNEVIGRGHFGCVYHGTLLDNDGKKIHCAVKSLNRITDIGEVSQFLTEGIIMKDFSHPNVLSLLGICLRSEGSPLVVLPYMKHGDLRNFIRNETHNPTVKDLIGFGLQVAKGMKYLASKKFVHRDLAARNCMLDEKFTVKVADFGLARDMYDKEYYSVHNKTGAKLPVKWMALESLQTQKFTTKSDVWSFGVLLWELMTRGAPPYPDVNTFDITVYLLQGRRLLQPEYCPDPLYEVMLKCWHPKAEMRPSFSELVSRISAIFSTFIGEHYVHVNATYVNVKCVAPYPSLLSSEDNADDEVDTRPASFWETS
Macrophage-stimulating protein receptor (Homo sapiens), sequence (Q04912 25-304 limits assumed): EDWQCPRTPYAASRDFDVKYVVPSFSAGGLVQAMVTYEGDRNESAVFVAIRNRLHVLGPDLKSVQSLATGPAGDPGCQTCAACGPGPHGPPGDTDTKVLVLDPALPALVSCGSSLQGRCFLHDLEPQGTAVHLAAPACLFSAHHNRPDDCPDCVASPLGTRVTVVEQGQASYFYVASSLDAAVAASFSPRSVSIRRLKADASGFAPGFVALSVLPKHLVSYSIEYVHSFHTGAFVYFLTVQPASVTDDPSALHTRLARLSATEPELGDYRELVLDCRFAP
Macrophage-stimulating protein receptor (Homo sapiens), sequence (Q04912 310-1400 limits assumed): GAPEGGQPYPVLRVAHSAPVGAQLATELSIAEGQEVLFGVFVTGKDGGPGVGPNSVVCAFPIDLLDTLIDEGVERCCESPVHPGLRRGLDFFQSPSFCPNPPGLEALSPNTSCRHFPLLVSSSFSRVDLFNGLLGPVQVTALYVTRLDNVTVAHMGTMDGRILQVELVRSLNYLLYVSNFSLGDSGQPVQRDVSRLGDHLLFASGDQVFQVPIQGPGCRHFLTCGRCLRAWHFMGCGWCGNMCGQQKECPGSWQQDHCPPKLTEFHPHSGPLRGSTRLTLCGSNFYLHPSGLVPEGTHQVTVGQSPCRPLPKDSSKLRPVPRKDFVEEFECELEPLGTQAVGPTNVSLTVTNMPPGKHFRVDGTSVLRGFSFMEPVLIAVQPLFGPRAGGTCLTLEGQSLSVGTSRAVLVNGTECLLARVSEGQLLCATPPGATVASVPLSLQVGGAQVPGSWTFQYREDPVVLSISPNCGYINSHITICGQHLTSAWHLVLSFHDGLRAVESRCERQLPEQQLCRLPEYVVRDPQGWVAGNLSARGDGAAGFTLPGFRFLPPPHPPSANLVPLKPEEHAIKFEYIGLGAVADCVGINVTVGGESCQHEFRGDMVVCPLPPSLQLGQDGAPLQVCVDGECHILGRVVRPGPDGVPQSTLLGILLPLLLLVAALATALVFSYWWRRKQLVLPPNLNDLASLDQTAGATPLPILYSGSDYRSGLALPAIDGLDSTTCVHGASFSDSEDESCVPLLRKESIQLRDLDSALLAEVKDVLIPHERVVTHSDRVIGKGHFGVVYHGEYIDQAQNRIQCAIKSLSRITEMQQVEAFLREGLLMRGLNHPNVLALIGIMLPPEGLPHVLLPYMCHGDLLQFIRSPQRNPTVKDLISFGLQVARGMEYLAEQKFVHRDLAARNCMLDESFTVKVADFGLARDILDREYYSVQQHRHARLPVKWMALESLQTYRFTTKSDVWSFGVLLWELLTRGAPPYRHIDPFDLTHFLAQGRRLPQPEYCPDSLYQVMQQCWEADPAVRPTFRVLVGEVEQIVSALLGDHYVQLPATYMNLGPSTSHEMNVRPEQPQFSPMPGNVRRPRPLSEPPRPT
Receptor tyrosine-protein kinase erbB-2 (Homo sapiens), sequence (P04626 whole entry, the tested form may be a part): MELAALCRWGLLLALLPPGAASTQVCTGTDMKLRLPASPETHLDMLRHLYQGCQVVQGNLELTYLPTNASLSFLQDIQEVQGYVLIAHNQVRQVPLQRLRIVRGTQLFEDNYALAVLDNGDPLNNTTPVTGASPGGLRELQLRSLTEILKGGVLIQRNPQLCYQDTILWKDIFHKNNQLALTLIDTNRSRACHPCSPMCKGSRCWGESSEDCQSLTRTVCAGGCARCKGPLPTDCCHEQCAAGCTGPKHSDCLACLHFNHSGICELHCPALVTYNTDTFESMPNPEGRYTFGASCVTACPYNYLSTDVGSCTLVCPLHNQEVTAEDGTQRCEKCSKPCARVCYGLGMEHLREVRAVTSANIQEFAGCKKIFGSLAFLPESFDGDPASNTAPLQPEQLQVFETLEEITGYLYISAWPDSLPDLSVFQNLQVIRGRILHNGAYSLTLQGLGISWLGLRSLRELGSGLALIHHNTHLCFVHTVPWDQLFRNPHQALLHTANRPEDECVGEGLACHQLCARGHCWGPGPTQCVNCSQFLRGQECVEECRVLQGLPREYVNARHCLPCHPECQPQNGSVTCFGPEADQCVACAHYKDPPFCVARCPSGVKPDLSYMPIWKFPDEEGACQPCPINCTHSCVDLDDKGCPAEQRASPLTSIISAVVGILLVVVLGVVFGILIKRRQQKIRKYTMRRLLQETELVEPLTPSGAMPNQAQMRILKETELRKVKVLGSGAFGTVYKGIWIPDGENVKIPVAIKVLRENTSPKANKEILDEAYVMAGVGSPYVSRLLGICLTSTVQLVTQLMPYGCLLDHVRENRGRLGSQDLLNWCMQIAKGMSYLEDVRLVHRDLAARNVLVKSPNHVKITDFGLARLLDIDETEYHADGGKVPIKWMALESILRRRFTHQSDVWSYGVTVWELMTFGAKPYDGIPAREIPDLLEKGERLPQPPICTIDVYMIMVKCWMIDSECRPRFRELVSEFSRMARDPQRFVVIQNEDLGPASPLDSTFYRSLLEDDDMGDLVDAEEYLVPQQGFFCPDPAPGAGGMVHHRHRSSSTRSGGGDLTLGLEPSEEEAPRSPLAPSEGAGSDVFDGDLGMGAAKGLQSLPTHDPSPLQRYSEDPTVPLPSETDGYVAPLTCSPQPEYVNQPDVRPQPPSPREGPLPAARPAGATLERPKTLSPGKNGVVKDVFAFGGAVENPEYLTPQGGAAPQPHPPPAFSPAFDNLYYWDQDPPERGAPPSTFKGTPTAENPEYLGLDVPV
Fibroblast growth factor receptor 1 (Homo sapiens), sequence (P11362 22-822 limits assumed): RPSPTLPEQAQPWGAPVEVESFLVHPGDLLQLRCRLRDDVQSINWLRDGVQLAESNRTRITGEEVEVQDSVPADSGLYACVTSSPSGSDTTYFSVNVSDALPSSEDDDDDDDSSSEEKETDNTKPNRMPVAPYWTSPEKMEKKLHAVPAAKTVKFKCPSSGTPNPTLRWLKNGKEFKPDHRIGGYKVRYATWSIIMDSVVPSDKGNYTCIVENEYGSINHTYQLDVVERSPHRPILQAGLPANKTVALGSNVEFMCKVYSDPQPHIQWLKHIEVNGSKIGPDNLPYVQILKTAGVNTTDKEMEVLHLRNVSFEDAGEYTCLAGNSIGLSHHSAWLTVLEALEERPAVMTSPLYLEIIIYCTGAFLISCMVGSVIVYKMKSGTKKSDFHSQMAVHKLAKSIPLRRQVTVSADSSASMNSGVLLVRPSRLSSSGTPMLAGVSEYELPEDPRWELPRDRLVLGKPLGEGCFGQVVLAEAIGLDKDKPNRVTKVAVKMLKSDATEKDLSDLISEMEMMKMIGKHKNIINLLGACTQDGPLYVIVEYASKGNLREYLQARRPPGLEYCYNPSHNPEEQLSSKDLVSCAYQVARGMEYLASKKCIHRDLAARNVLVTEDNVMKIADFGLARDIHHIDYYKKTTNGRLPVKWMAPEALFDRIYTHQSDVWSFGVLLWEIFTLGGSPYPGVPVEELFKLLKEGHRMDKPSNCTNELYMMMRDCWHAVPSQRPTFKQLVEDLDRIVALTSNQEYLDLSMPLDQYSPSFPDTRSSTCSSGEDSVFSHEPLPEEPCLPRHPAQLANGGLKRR

SMILES: C/C1=C\[C@H](OC(=O)Nc2cccc(C(F)(F)F)c2)C[C@](C)(O)/C=C/[C@H](C(C)C)CC/C(C)=C/CC1
- IC50 [1]: 4.9 µM
- IC50 [2]: 5.8 µM
- IC50 [3]: 1800 nM

SMILES: C/C1=C\[C@H](OC(=O)NC2CCCCC2)C[C@](C)(O)/C=C/[C@H](C(C)C)CC/C(C)=C/CC1
- IC50 [1]: 38.2 µM
- IC50 [2]: 39.6 µM

SMILES: C/C1=C\[C@H](OC(=O)Nc2cc(C(F)(F)F)cc(C(F)(F)F)c2)C[C@](C)(O)/C=C/[C@H](C(C)C)CC/C(C)=C/CC1
- IC50 [4]: 7.2 µM
- IC50 [5]: 11.2 µM
- IC50 [1]: 1.3 µM
- IC50 [2]: 2.1 µM
- IC50 [6]: 4.7 µM
- IC50 [7]: 3.9 µM
- IC50 [3]: 1100 nM
- inhibition [3]: Dose-dependent effect
- inhibition [8]: Dose-dependent effect
- inhibition [9]: Dose-dependent effect
- inhibition [10]: Dose-dependent effect
- inhibition [11]: Dose-dependent effect
- inhibition [12]: Dose-dependent effect
- Activity [13]: Active
- Activity [14]: Non-Toxic
- cytotoxicity at 24 h, 15 µM [15]: 8.3%
- inhibition [16]: 31%
- inhibition [17]: 10%
- inhibition [18]: 11%
- inhibition [19]: 9%
- inhibition [20]: 22%
- inhibition [21]: 49%
- inhibition [22]: 30%
- inhibition [23]: 84%
- inhibition [24]: 31%
- inhibition [25]: 3%
- Activity [26]: 716 mm3
- inhibition in vivo at 10 mg/kg [27]: 66.7%
- Activity [28]: Non-Toxic
- inhibition [29]: Active
- inhibition [30]: Dose-dependent effect
- Activity [31]: Active
- IC50 [32]: 1400 nM
- IC50 [33]: 1700 nM

SMILES: C/C1=C\[C@H](OC(=O)Nc2ccc(Cl)c(Cl)c2)C[C@](C)(O)/C=C/[C@H](C(C)C)CC/C(C)=C/CC1
- IC50 [1]: 8.5 µM
- IC50 [2]: 10.7 µM

SMILES: C/C1=C\[C@H](OC(=O)Nc2cc(Cl)cc(Cl)c2)C[C@](C)(O)/C=C/[C@H](C(C)C)CC/C(C)=C/CC1
- IC50 [1]: 5.3 µM
- IC50 [2]: 6.6 µM
- IC50 [3]: 2900 nM

SMILES: C/C1=C\[C@H](OC(=O)Nc2c(Cl)cccc2Cl)C[C@](C)(O)/C=C/[C@H](C(C)C)CC/C(C)=C/CC1
- IC50 [1]: 10.8 µM
- IC50 [2]: 12.3 µM

SMILES: C/C1=C\[C@H](OC(=O)Nc2ccc(Cl)cc2Cl)C[C@](C)(O)/C=C/[C@H](C(C)C)CC/C(C)=C/CC1
- IC50 [1]: 10.4 µM
- IC50 [2]: 15.4 µM

SMILES: C/C1=C\[C@H](OC(=O)Nc2ccccc2F)C[C@](C)(O)/C=C/[C@H](C(C)C)CC/C(C)=C/CC1
- IC50 [1]: 16.1 µM
- IC50 [2]: 17.8 µM

SMILES: C/C1=C\[C@H](O)C[C@](C)(O)/C=C/[C@H](C(C)C)CC/C(C)=C/CC1
- IC50 [3]: 22600 nM
- inhibition [34]: Dose-dependent effect
